Source: patent publication US9981928B2, “Aryl sulfide derivatives and aryl sulfoxide derivatives as acaricides and insecticides” (BAYER CROPSCIENCE AKTIENGESELLSCHAFT, priority 2013, dated 2018)
“And” between values parts separate entries of the source, which are not always exact repeats. Identical values can stand only once. Like-named read-outs stand apart in the source and are kept apart here.

Tests used:
[1] = system: southern root-knot nematode (Meloidogyne incognita); assay: Meloidogyne incognita test (MELGIN); type: in vivo; settings: lettuce in sand; application rate 20 ppm; after 14 days
Method: Meloidogvne incognita test (MELGIN)
Solvent: 125.0 parts by weight of acetone
To produce a suitable preparation of active compound, 1 part by weight of active compound is mixed with the stated amount of solvent and the concentrate is diluted with water to the desired concentration.
Vessels are filled with sand, active compound solution, an egg/larvae suspension of the southern root-knot nematode (Meloidogyne incognita) and lettuce seeds. The lettuce seeds germinate and the plants develop. The galls develop on the roots.
After 14 days, the nematicidal efficacy in % is determined by the formation of galls. 100% means that no galls were found; 0% means that the number of galls on the treated plants corresponds to the untreated control.

[2] = system: greenhouse red spider mite (Tetranychus urticae); assay: Tetranychus urticae spray test, OP-resistant (TETRUR), bean leaf disks; type: in vivo; settings: bean leaf disks, after 6 days; for pest or weed control at 500 g/ha: Tetranychus urticae, foliar, 144 h, read-out: efficacy in %
Summary of the method: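 Bean leaf disks carrying all stages of OP-resistant Tetranychus urticae sprayed with compound in acetone/dimethylformamide diluted in emulsifier water. Kill assessed after 6 days as % efficacy, 100% meaning all mites dead.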

[3] = log P determination by HPLC on reversed-phase columns (C 18), analogously to OECD Guideline 117; type: physicochemical; settings: for chromatographic logP: reversed-phase C18 HPLC column; for logP (HCOOH): LC-MS in the acidic range, pH 2.7, 0.1% aqueous formic acid / acetonitrile; for logP (HCOOH) / logP (neutral): HPLC reversed-phase C 18; for logP (neutral): LC-MS in the neutral range, pH 7.8, 0.001 molar aqueous ammonium hydrogencarbonate / acetonitrile
Summary of the method: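 Reversed-phase C18 HPLC per OECD 117 with LC-MS detection and a linear 10→95% acetonitrile gradient. Acidic log P run at pH 2.7 with 0.1% formic acid in both eluents. Neutral log P run at pH 7.8 with 0.001 M aqueous ammonium hydrogencarbonate.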

[4] = acidic range, pH 2.7, 0.1% aqueous formic acid and acetonitrile, read-out: log P[a] / log P(HCOOH)
[5] = neutral range, pH 7.8, 0.001 molar aqueous ammonium hydrogencarbonate and acetonitrile, read-out: log P[b] / log P(neutral)

Row | SMILES | nematicidal efficacy in % (formation of galls) [1] | pest or weed control at 500 g/ha ([2]; application rate 500 g/ha) | chromatographic logP [3, 4] | chromatographic logP [3, 5] | efficacy in % ([2]; application rate 500 g/ha) | logP (HCOOH) [3] | logP (neutral) [3] | efficacy in % ([2]; application rate 100 g/ha)
1 | Cc1ccc(-n2c(=O)n(C)c(=O)n2C)cc1SCC(F)(F)F [Example 20, 1,4-Dimethyl-2-{4-methyl-3-[(2,2,2-trifluoroethyl)sulfanyl]phenyl}-1,2,4-triazolidine-3,5-dione] | 90% | 100% | 2.59 | 2.58 | – | – | – | –
2 | Cn1c(=O)n(C)n(-c2cc([S+]([O-])CC(F)(F)F)c(Cl)cc2F)c1=O (stereo not shown) [Example 29] | 90% | – | – | – | 90% | 1.93 | 1.91 | –
3 | Cn1c(=O)n(C)n(-c2cc(SCC(F)(F)F)c(Cl)cc2F)c1=O [Example 30] | 90% | – | – | – | 100% | 2.71 | 2.67 | –
4 | Cc1cc(C)c([S+]([O-])CC(F)(F)F)cc1-n1c(=O)n(C)c(=O)n1C (stereo not shown) [Example 33] | 90% | – | – | – | 90% | 1.75 | 1.70 | –
5 | Cc1ccc(-n2c(=O)n(C3CC3)c(=O)n2C)cc1SCC(F)(F)F [Example 36] | 100% | – | – | – | 100% | 2.89 | 2.87 | –
6 | Cn1c(=O)n(C2CC2)c(=O)n1-c1cc([S+]([O-])CC(F)(F)F)c(Cl)cc1F (stereo not shown) [Example 38] | 100% | – | – | – | 100% | 2.18 | 2.16 | –
7 | COc1ccc(-n2c(=O)n(C3CC3)c(=O)n2C)cc1[S+]([O-])CC(F)(F)F (stereo not shown) [Example 41] | 90% | – | – | – | 90% | 1.77 | 1.75 | –
8 | COc1ccc(-n2c(=O)n(C3CC3)c(=O)n2C)cc1SCC(F)(F)F [Example 42] | 90% | – | – | – | 100% | 2.51 | 2.46 | –
9 | Cn1c(=O)n(C2CC2)c(=O)n1-c1ccc(C#N)c(SCC(F)(F)F)c1 [Example 44] | 90% | – | – | – | – | 2.53 | 2.45 | –
10 | Cn1c(=O)n(C2CC2)c(=O)n1-c1ccc(Br)c([S+]([O-])CC(F)(F)F)c1 (stereo not shown) [Example 45] | 90% | – | – | – | – | 2.27 | 2.24 | –
11 | Cn1c(=O)n(C)n(-c2cc([S+]([O-])CC(F)(F)F)c(Br)cc2F)c1=O (stereo not shown) [Example 69] | 90% | – | – | – | – | 2.01 | 1.98 | –
12 | Cn1c(=O)n(C)n(-c2cc([S+]([O-])CC(F)(F)F)c(F)cc2F)c1=O (stereo not shown) [Example 70] | 90% | – | – | – | – | 1.64 | 1.59 | –
13 | CCn1c(=O)n(C)n(-c2cc([S+]([O-])CC(F)(F)F)c(C)cc2F)c1=O (stereo not shown) [Example 74] | 90% | – | – | – | – | 1.93 | 1.91 | 90%
14 | C=CCn1c(=O)n(C)n(-c2cc([S+]([O-])CC(F)(F)F)c(C)cc2F)c1=O (stereo not shown) [Example 80] | 90% | – | – | – | 100% | 2.07 | 2.03 | –
15 | C=CCn1c(=O)n(C)n(-c2cc(SCC(F)(F)F)c(C)cc2F)c1=O [Example 81] | 90% | – | – | – | – | 3.05 | 3.01 | 100%
16 | Cc1cc(F)c(N2C(=O)C(C)(C)C(=O)N2C)cc1SCC(F)(F)F [Example 174, 1-{2-Fluoro-4-methyl-5-[(2,2,2-trifluoroethyl)sulfanyl]phenyl}-2,4,4-trimethylpyrazolidine-3,5-dione] | – | 100% | 2.84 | 2.79 | – | – | – | –
17 | CCC1(CC)C(=O)N(C)N(c2cc(SCC(F)(F)F)c(C)cc2F)C1=O [Example 175] | – | – | – | – | 100% | 3.41 | 3.40 | –
18 | CCC1(CC)C(=O)N(C)N(c2cc([S+]([O-])CC(F)(F)F)c(C)cc2F)C1=O (stereo not shown) [Example 176] | – | – | – | – | 100% | 2.37 | 2.31 | –
19 | Cc1cc(F)c(N2C(=O)C(C)(C)C(=O)N2Cc2ccccc2)cc1SCC(F)(F)F [Example 178] | – | – | – | – | 100% | 3.80 | 3.76 | –
20 | Cc1cc(F)c(N2C(=O)C3(CCC3)C(=O)N2C)cc1[S+]([O-])CC(F)(F)F (stereo not shown) [Example 180] | – | – | – | – | 100% | 1.99 | 1.97 | –
21 | Cc1cc(F)c(-n2c(=S)n(C3CC3)c(=S)n2C)cc1SCC(F)(F)F [Example 182, 4-cyclopropyl-1-{2-fluoro-4-methyl-5-[(2,2,2-trifluoroethyl)sulfanyl]phenyl}-2-methyl-1,2,4-triazolidine-3,5-dithione] | 90% | – | 3.83 | 3.76 | – | – | – | –

Row | SMILES | nematicidal efficacy in % (formation of galls) [1] | pest or weed control at 500 g/ha ([2]; application rate 500 g/ha) | chromatographic logP [3, 4] | chromatographic logP [3, 5] | efficacy in % ([2]; application rate 500 g/ha) | logP (HCOOH) [3] | logP (neutral) [3] | efficacy in % ([2]; application rate 100 g/ha)
22 | Cc1cc(F)c(N2C(=O)C(=O)N(C3CC3)C2=O)cc1[S+]([O-])CC(F)(F)F (stereo not shown) [Example 183] | – | – | – | – | 100% | 2.31 | – | –
23 | Cc1cc(C)c([S+]([O-])CC(F)(F)F)cc1N1C(=O)C(=O)N(CC(F)F)C1=O (stereo not shown) [Example 184] | – | – | – | – | 100% | 2.44 | – | –
24 | Cc1cc(C)c(N2C(=O)C(=O)N(CC(F)(F)F)C2=S)cc1SCC(F)(F)F [Example 187] | – | – | – | – | 90% | 4.21 | – | –
25 | Cc1cc(C)c([S+]([O-])CC(F)(F)F)cc1N1C(=O)C(=O)N(CC(F)(F)F)C1=S (stereo not shown) [Example 188] | – | – | – | – | 90% | 3.18 | – | –
26 | Cc1cc(F)c(N2C(=O)C(=O)N(CC(F)(F)F)C2=S)cc1SCC(F)(F)F [Example 189] | – | – | – | – | 90% | 3.95 | – | –
27 | Cc1cc(F)c(N2C(=O)C(=O)N(CC(C)C)C2=S)cc1SCC(F)(F)F [Example 191] | – | – | – | – | 100% | 4.62 | 4.54 | –
28 | Cc1cc(F)c(N2C(=O)C(=O)N(CC(C)(C)C)C2=S)cc1SCC(F)(F)F [Example 192] | – | – | – | – | 90% | 4.89 | 4.80 | –
29 | Cc1cc(F)c(N2C(=O)C(=O)N(C(C)(C)C)C2=S)cc1SCC(F)(F)F [Example 193] | – | – | – | – | 100% and 90% | 4.50 | 4.42 | –
30 | Cc1cc(F)c(N2C(=O)C(=O)N(CC(C)C)C2=S)cc1[S+]([O-])CC(F)(F)F (stereo not shown) [Example 194] | – | – | – | – | 90% | 3.56 | 3.53 | –
31 | Cc1cc(F)c(N2C(=O)C(=O)N(CC(C)(C)C)C2=S)cc1[S+]([O-])CC(F)(F)F (stereo not shown) [Example 195] | – | – | – | – | 90% | 3.85 | 3.79 | –
32 | Cc1cc(F)c(N2C(=O)C(=O)N(C(C)(C)C)C2=S)cc1[S+]([O-])CC(F)(F)F (stereo not shown) [Example 196] | – | – | – | – | 90% | 3.45 | 3.41 | –
33 | CCCCN1CC(=O)N(c2cc(SCC(F)(F)F)c(C)cc2F)C1=O [Example 202] | – | – | – | – | 100% | 3.39 | 3.35 | –
34 | CCCCN1CC(=O)N(c2cc([S+]([O-])CC(F)(F)F)c(C)cc2F)C1=O (stereo not shown) [Example 203] | – | – | – | – | 90% | 2.47 | 2.43 | –
35 | Cc1cc(F)c(N2C(=O)CN(Cc3ccccc3)C2=O)cc1SCC(F)(F)F [Example 204] | – | – | – | – | 100% | 3.49 | 3.48 | –
36 | Cc1cc(F)c(N2C(=O)CN(Cc3ccccc3)C2=O)cc1[S+]([O-])CC(F)(F)F (stereo not shown) [Example 205] | – | – | – | – | 90% | 2.60 | 2.52 | –
37 | Cc1cc(F)c(N2C(=O)N(C)C(=O)C2C)cc1SCC(F)(F)F (stereo not shown) [Example 212] | – | – | – | – | 90% | 2.92 | – | –
38 | Cc1cc(F)c(N2C(=O)N(C)C(=O)C2C)cc1[S+]([O-])CC(F)(F)F (stereo not shown) [Example 213] | – | – | – | – | 100% | 1.91 | – | –
39 | Cc1cc(F)c(N2C(=O)N(C3CC3)C(=O)C2C)cc1SCC(F)(F)F (stereo not shown) [Example 214] | – | – | – | – | 100% | 3.12 | – | –
40 | Cc1cc(F)c(N2C(=O)N(C3CC3)C(=O)C2C)cc1[S+]([O-])CC(F)(F)F (stereo not shown) [Example 215] | – | – | – | – | 100% | 2.15 | – | –
41 | Cc1cc(F)c(N2C(=O)N(C)C(=O)C2(C)C)cc1SCC(F)(F)F [Example 217, 1-[2-Fluoro-4-methyl-5-(2,2,2-trifluoroethylsulfanyl)phenyl]-3,5,5-trimethylimidazolidine-2,4-dione] | – | 90% | 3.11 | – | – | – | – | –
